Results as given in patent publication US10519138B2, “Modulators of SOCE, compositions, and uses thereof” (Università degli Studi del Piemonte Orientale “Amedeo …, priority 2016, dated 2019).
Several values for one entry are separate records, joined by “and”; a condition that tells them apart may be missing. Equal values may be shown once.

What was measured:
[1] = test system: Store Operated Calcium Entry (SOCE) in Jurkat cells; experiment: Fura-2 single-cell Ca2+ measurement of tBHQ-induced SOCE in Jurkat cells; format: cell-based, human; conditions: for inhibition at 10 µM: Homo sapiens, SOCE modulation based on tBHQ-induced calcium influx
Description: Immortalized line of human T lymphocyte Jurkat cells were achieved from ATCC (ATCC® TIB-152™, Rockville, Md., USA) and were cultured in Roswell Park Memorial Institute Medium (RPMI 1640; Sigma-Aldrich, Italy), supplemented with 10% heat-inactivated FBS (Gibco, Italy), 1-glutamine 50 mg/mL (Sigma-Aldrich, Italy), penicillin 10 U/mL and streptomycin […] (Sigma-Aldrich, Italy) at 37° C., under a 5% CO2 humidified atmosphere. For experiments, the cells were plated onto glass coverslips at concentrations of 6×10^4 per mL (24 mm diameter coverslips in 6 well plates).
Compounds were also tested on Jurkat cells in single-cell analysis using Fura-2 AM on cover-slips. Jurkat cells were loaded with 5 μM Fura-2 AM in presence of 0.02% of Pluronic-127 (both from Life Technologies, Italy) and 1 μM sulfinpyrazone in Krebs-Ringer buffer (KRB, 135 mM NaCl, 5 mM KCl, 0.4 mM KH2PO4, 1 mM MgSO4, 5.5 mM glucose, 20 mM HEPES, pH 7.4) containing 2 mM CaCl2 (30 min, room temperature). Afterwards, cells were washed and incubated with KRB for other 30 min to allow de-esterification of Fura-2AM. To measure store operated calcium entry, changes in cytosolic Ca^2+ were monitored upon depletion of the intracellular Ca^2+ stores. Experiments were carried out prior to and during exposure of the cells to the Ca^2+-free solution. In the absence of Ca^2+, the intracellular Ca^2+ stores were depleted by inhibition of the vesicular Ca^2+ pump by 2,5-t-butylhydroquinone (tBHQ, 50 μM; Sigma-Aldrich, Italy). Re-addition of 2 mM Ca^2+ allowed assessing the SOCE. During the experiments the cover-slips were mounted into acquisition chamber and placed on the stage of a Leica DMI6000 epi-fluorescent microscope equipped with S Fluor ×40/1.3 objective. Fura-2 was excited by alternate 340 and 380 nm using a Polychrome IV mono-chromator (Till Photon-ics, Germany) and the probe emission light was filtered through 520/20 band-pass filter and collected by a cooled CCD camera (Hamamatsu, Japan). The fluorescence signals were acquired and processed using MetaFluor software (Molecular Device, Sun-Nyvale, C A, USA). To quantify the differences in the amplitudes of Ca^2+ transients the ratio values were normalized using the formula ΔF/F0 (referred to as normalized Fura-2 ratio, “Norm. Fura ratio”). The percentage of SOCE modulation for each of 15 compounds was determined based on value of tBHQ-induced calcium influx into Jurkat cells. Data were analysed using Microsoft Excel and GraphPad Prism.

[2] = test system: Store Operated Calcium Entry (SOCE) in BV-2 cells; experiment: Fluo-4 fluorimetric assay of tBHQ-induced store operated calcium entry in BV-2 cells; format: cell-based, mouse; conditions: for inhibition at 10 µM: Mus musculus, SOCE inhibition based on tBHQ-induced calcium influx; for % Activation (10 μM): potentiation of calcium entry
Description: (A) BV-2 cells were plated in poly-d-lysine coated 24-well plate and incubated overnight. After 24 hours, cells were loaded with 2 μM Fluo-4 and placed in an extracellular solution containing 0 mM Ca^2+. Stores were depleted with 50 μM tBHQ and calcium influx was stimulated by the addition of 2 mM Ca^2+ alone (Ctrl), or in conbination with: compound with no activity (NM-3A), and compounds that positively (4-(1-(4-(3,5-bis(trifluoromethyl)-1H-pyrazol-1-yl)phenyl)-1H-1,2,3-triazol-4-yl)benzoic acid) and negatively (3-(1-(4-(4-(ethoxycarbonyl)-5-(trifluoromethyl)-1H-pyrazol-1-yl)phenyl)-1H-1,2,3-triazol-4-yl)benzoic acid) regulate SOCE. Calcium responses are expressed as changes in fluorescence intensity before and after the addition of selected modulators. (B) BV-2 cells were assayed for a calcium response to different concentrations of 3-(1-(4-(4-(ethoxycarbonyl)-5-(trifluoromethyl)-1H-pyrazol-1-yl)phenyl)-1H-1,2,3-triazol-4-yl)benzoic acid and 4-(1-(4-(3,5-bis(trifluoromethyl)-1H-pyrazol-1-yl)phenyl)-1H-1,2,3-triazol-4-yl)benzoic acid (0.1-0.3-1-3-10-30-100 μM) using Fluo-4 fluorimetric assay. Concentration-response curves represent the AUC % of both compounds as compared to positive control.
Immortalized primary mouse microglial BV-2 cells were obtained from ATCC (ATCC® CRL-2540™, Rockville, Md., USA) and were cultured in Dulbecco's Modified Eagle's Medium (DMEM; Sigma-Aldrich, Italy), supplemented with 10% heat-inactivated FBS (Gibco, Italy), 1-glutamine 50 mg/mL (Sigma-Aldrich, Italy), penicillin 10 U/mL and streptomycin […] (Sigma-Aldrich, Italy) at 37° C., under a 5% CO2 humidified atmosphere. For experiments, the cells were plated 2×10^4 per ml in 24 well plates) or onto glass coverslips at concentrations of 4×10^4 per mL (24 mm diame-ter coverslips in 6 well plates).
BV-2 cells were loaded with 5 μM Fluo-4 AM in presence of 0.02% of Pluronic-127 (both from Life Technologies, Italy) and 10 μM sulfinpyrazone in Krebs-Ringer buffer (KRB, 135 mM NaCl, 5 mM KCl, 0.4 mM KH2PO4, 1 mM MgSO4, 5.5 mM glucose, 20 mM HEPES, pH 7.4) containing 2 mM CaCl2 (30 min, room temperature). Subsequently, cells were washed and incubated with KRB for other 30 min to allow de-esterification of Fluo-4 AM. Experiments were carried out prior to and during exposure of the cells to the Ca^2+-free solution. In the absence of Ca^2+, the intracellular Ca^2+ stores were depleted by 2,5-t-butylhydroquinone (tBHQ, 50 μM; Sigma-Aldrich, Italy), a SERCA poison, and then calcium 2 mM was re-added to the extracellular solution. Fluorescence is then monitored sequentially for a second in each well for 600 seconds with excitation at 494 nm and an emission wavelength at 516 nm on the V3 Victor plate-reader (Perkin Elmer), generating time-curves for each well. Data were analysed using Microsoft Excel and GraphPad Prism.
The percentage of SOCE inhibition for each compound was determined based on value of tBHQ-induced calcium influx into BV-2 cells (Table 2).

ICRAC = ICRAC (Homo sapiens, UniProt Q96D31); conditions: read-out: IC50 (inhibition of ICRAC); cited from earlier work
ICRAC, sequence (Q96D31 whole entry): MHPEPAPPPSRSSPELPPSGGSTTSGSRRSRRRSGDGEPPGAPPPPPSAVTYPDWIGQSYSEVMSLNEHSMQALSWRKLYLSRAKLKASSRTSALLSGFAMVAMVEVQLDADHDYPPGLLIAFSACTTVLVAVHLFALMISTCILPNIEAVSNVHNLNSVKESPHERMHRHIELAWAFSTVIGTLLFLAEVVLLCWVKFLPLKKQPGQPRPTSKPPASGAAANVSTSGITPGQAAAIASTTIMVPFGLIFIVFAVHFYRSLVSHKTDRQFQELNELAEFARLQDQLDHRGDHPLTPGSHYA

CCOC(=O)c1cnn(-c2ccc(-n3cc(-c4ccc(O)c(OC)c4)nn3)cc2)c1C(F)(F)F [ethyl 1-(4-(4-(4-hydroxy-3-methoxyphenyl)-1H-1,2,3-triazol-1-yl)phenyl)-5-(trifluoromethyl)-1H-pyrazole-4-carboxylate]
inhibition at 10 µM [1]: 78.4%
inhibition at 10 µM [2]: 35%

O=C(O)c1cccc(-c2cn(-c3ccc(-n4nc(C(F)(F)F)cc4C(F)(F)F)cc3)nn2)c1 [3-(1-(4-(3,5-bis(trifluoromethyl)-1H-pyrazol-1-yl)phenyl)-1H-1,2,3-triazol-4-yl)benzoic acid]
inhibition at 10 µM [1]: 38.3%
inhibition at 10 µM [2]: 38.7%

O=C(O)c1cccc(-n2cc(-c3ccc(-n4nc(C(F)(F)F)cc4C(F)(F)F)cc3)nn2)c1 [3-(4-(4-(3,5-bis(trifluoromethyl)-1H-pyrazol-1-yl)phenyl)-1H-1,2,3-triazol-1-yl)benzoic acid]
inhibition at 10 µM [1]: 39.7%
inhibition at 10 µM [2]: 30.5%

O=C(O)c1ccc(-c2cn(-c3ccc(-n4nc(C(F)(F)F)cc4C(F)(F)F)cc3)nn2)cc1 [4-(1-(4-(3,5-bis(trifluoromethyl)-1H-pyrazol-1-yl)phenyl)-1H-1,2,3-triazol-4-yl)benzoic acid]
% Activation (10 μM) [1]: 136.42%
% Activation (10 μM) [2]: 125.15%
Regulation of SOCE (calcium response, representative traces FIG. 2A) ([2]; Fluo-4, 50 μM tBHQ, 2 mM Ca2+ re-addition): positively

O=C(O)c1cccc(-c2cn(-c3ccc(-n4ncc(C(=O)OCc5ccncc5)c4C(F)(F)F)cc3)nn2)c1 [3-(1-(4-(4-((pyridin-4-ylmethoxy)carbonyl)-5-(trifluoromethyl)-1H-pyrazol-1-yl)phenyl)-1H-1,2,3-triazol-4-yl)benzoic acid]
inhibition at 10 µM [1]: 57%
inhibition at 10 µM [2]: 54.6%

O=C(O)c1cccc(-c2cn(-c3ccc(-n4ncc(C(=O)OCCN5CCOCC5)c4C(F)(F)F)cc3)nn2)c1 [3-(1-(4-(4-((2-morpholinoethoxy)carbonyl)-5-(trifluoromethyl)-1H-pyrazol-1-yl)phenyl)-1H-1,2,3-triazol-4-yl)benzoic acid]
inhibition at 10 µM [1]: 25.1%
inhibition at 10 µM [2]: 95.7%

CC(C)OC(=O)c1cnn(-c2ccc(-n3cc(-c4cccc(C(=O)O)c4)nn3)cc2)c1C(F)(F)F [3-(1-(4-(4-(isopropoxycarbonyl)-5-(trifluoromethyl)-1H-pyrazol-1-yl)phenyl)-1H-1,2,3-triazol-4-yl)benzoic acid]
inhibition at 10 µM [1]: 93.9%
inhibition at 10 µM [2]: 74.6%

CCOC(=O)c1cnn(-c2ccc(-c3cn(CCCC(=O)O)nn3)cc2)c1C(F)(F)F [4-(4-(4-(4-(ethoxycarbonyl)-5-(trifluoromethyl)-1H-pyrazol-1-yl)phenyl)-1H-1,2,3-triazol-1-yl)butanoic acid]
inhibition at 10 µM [1]: 19.1%
inhibition at 10 µM [2]: 30.1%

CCOC(=O)c1cnn(-c2ccc(-c3cn(-c4cccc(C(=O)O)c4)nn3)cc2)c1C(F)(F)F [3-(4-(4-(4-(ethoxycarbonyl)-5-(trifluoromethyl)-1H-pyrazol-1-yl)phenyl)-1H-1,2,3-triazol-1-yl)benzoic acid]
inhibition at 10 µM [1]: 63.6%
inhibition at 10 µM [2]: 43.3%

O=C(O)c1cccc(-c2cn(-c3ccc(-n4ncc(C(=O)OCc5ccccc5)c4C(F)(F)F)cc3)nn2)c1 [3-(1-(4-(4-((benzyloxy)carbonyl)-5-(trifluoromethyl)-1H-pyrazol-1-yl)phenyl)-1H-1,2,3-triazol-4-yl)benzoic acid]
inhibition at 10 µM [1]: 33.5%
inhibition at 10 µM [2]: 87%

COC(=O)c1cnn(-c2ccc(-n3cc(-c4cccc(C(=O)O)c4)nn3)cc2)c1C(F)(F)F [3-(1-(4-(4-(methoxycarbonyl)-5-(trifluoromethyl)-1H-pyrazol-1-yl)phenyl)-1H-1,2,3-triazol-4-yl)benzoic acid]
inhibition at 10 µM [1]: 21.8%
inhibition at 10 µM [2]: 12.4%

CCOC(=O)c1cnn(-c2ccc(-n3cc(-c4ccc(C(=O)O)cc4)nn3)cc2)c1C(F)(F)F [4-(1-(4-(4-(ethoxycarbonyl)-5-(trifluoromethyl)-1H-pyrazol-1-yl)phenyl)-1H-1,2,3-triazol-4-yl)benzoic acid]
inhibition at 10 µM [1]: 32.3%
inhibition at 10 µM [2]: 40.1%

CCOC(=O)c1cnn(-c2ccc(-c3cn(-c4ccc(Cl)cc4)nn3)cc2)c1C(F)(F)F [ethyl 1-(4-(1-(4-chlorophenyl)-1H-1,2,3-triazol-4-yl)phenyl)-5-(trifluoromethyl)-1H-pyrazole-4-carboxylate]
% Activation (10 μM) [1]: 122.94% and 126.78% and 97.32%
% Activation (10 μM) [2]: 47.07%

COc1ccc(OC)c(-c2ccc(NC(=O)c3ccncc3F)cc2)c1 [Synta66]
IC50 (ICRAC): 300 nM

O=C(O)c1cnn(-c2ccc(-c3cn(-c4ccc(Cl)cc4)nn3)cc2)c1C(F)(F)F [1-(4-(1-(4-chlorophenyl)-1H-1,2,3-triazol-4-yl)phenyl)-5-(trifluoromethyl)-1H-pyrazole-4-carboxylic acid]
% Activation (10 μM) [1]: 100.13%

CCOC(=O)c1cnn(-c2ccc(-c3cn(-c4ccncc4F)nn3)cc2)c1C(F)(F)F [ethyl 1-(4-(1-(3-fluoropyridin-4-yl)-1H-1,2,3-triazol-4-yl)phenyl)-5-(trifluoromethyl)-1H-pyrazole-4-carboxylate]
inhibition at 10 µM [1]: 32.9%
inhibition at 10 µM [2]: 37.7%
